Results reported in patent US8980917B2, “Methods for treating or preventing brain infections” (The Johns Hopkins University, priority 2008, dated 2015).
Entries after “also recorded” stand apart in the source; their conditions may differ. Like-named read-outs stand apart in the source and are kept apart here.

Legend:
human BMEC [1] = conditions: inhibitors of iPLA2 and sPLA2; refs (1-3, 24); cited from earlier work
HBMEC [2] = conditions: cited from earlier work; for E. coli invasion of HBMEC: pretreatment with microfilament-disrupting agents, previous experiments
HBMEC [3] = assay: E. coli K1 binding and invasion assays in human BMEC (HBMEC); format: cell-based; conditions: for E. coli K1 invasion of HBMEC: strain RS218, HBMEC pretreated 30 mins, compared to vehicle control (DMSO); for E. coli K1 invasion of human BMEC monolayers: inhibitors of cPLA2α, Rho kinase, Rac1 and PKC
Procedure: E. coli strain RS218 was grown overnight in BHI broth in the presence of streptomycin (50 μg/ml). Bacteria were resuspended in experimental medium [M199-HamF12 (1:1) containing 5% heat-inactivated fetal bovine serum, 2 mM glutamine, and 1 mM pyruvate] and added in a multiplicity of infection (MOI) of 100:1 to HBMEC grown in collagen-coated 24-well plates at 37° C. in 5% CO2 incubator for 90 min for binding assay as described previously (9, 10, 14, 28). HBMEC were washed four times with PBS to remove unbound bacteria, lysed in 0.025% Triton X-100 and plated for determinations of CFUs. The results were calculated as a percent of the initial inoculum and expressed as percent relative binding compared to percent binding of RS218 in the presence of vehicle control (DMSO). Each set was run in triplicates.
The HBMEC invasion assay with gentamicin treatment was performed to determine the number of viable intracellular bacteria recovered from the infected HBMEC, as previously described (9, 10, 14, 28). E. coli K1 strain RS218 was added to HBMEC as described above for binding assay. HBMEC were subsequently washed with RPMI 1640 and incubated with experimental media containing gentamicin (100 μg/ml) for 1 h to kill extracellular bacteria. The cells were washed again with PBS and lysed in 0.025% Triton X-100. The released intracellular bacteria were enumerated by plating on sheep blood agar plates. The results were calculated as a percent of the initial inoculum and expressed as percent relative invasion compared to percent invasion of RS218 in the presence of vehicle control (DMSO). Each set was run in triplicates.
To examine the effects of inhibitors and antagonists on E. coli K1 binding to and invasion of HBMEC, HBMEC were pretreated with inhibitors or antagonists for 30 mins before addition of E. coli, and then processed for binding and invasion assays as described above.
E. coli strain RS218 (O18:K1:H7), a cerebrospinal fluid isolate from a neonate with meningitis, was grown overnight in brain heart infusion (BHI) broth (Difco Laboratories, Detroit, Mich.). Bacteria were resuspended in experimental medium [M199-HamF12 (1:1) containing 5% heat-inactivated fetal bovine serum, 2 mM glutamine, and 1 mM pyruvate] and added in a multiplicity of infection (MOI) of 100:1 to BMECs grown in collagen-coated 24-well plates at 37° C. in 5% CO2 incubator for 90 min for binding assay, as previously described^11. BMECs were washed four times with PBS to remove unbound bacteria, lysed in 0.025% Triton X-100 and plated for determinations of CFUs. The results were calculated as a percent of the initial inoculum and expressed as percent relative binding compared to percent binding of RS218 in the presence of vehicle control (DMSO). Each set was run in triplicates.
The BMEC invasion assay with gentamicin treatment^11 was performed to determine the number of viable intracellular bacteria recovered from the infected BMECs. E. coli K1 strain RS218 was added to BMEC as described above for binding assay. BMECs were subsequently washed with RPMI 1640 and incubated with experimental media containing gentamicin (100 μg/ml) for 1 h to kill extracellular bacteria. The cells were washed again with PBS, lysed in 0.025% Triton X-100, and the released intracellular bacteria were enumerated by plating on sheep blood agar plates. The results were calculated as a percent of the initial inoculum and expressed as percent relative invasion compared to percent invasion of RS218 in the presence of vehicle control (DMSO). Each set was run in triplicates.
E. coli. Human BMEC association and invasion assays were carried out as described previously (15). Briefly, for association assays, confluent human BMEC in 24-well tissue culture plates were incubated with 10^7 CFU of E. coli at a multiplicity of infection of 100 for 90 minutes at 37° C. […]

E. coli K1 strain RS218 = assay: Mouse model of experimental hematogenous E. coli meningitis (5-LO-/- and wild-type 129SvEv mice); format: in vivo
Excerpt: Female 5-LO−/− (129-Alox5^tm1Fun/J) and strain-matched (129SvEv) wild-type mice, 9˜12 week old and 18˜26 gm, were used (23). […] Most animals receiving 1×10^7 CFUs, however, died between one and two hour of intravenous inoculation. Based on these observations, we examined and compared E. coli K1 penetration into the brain at one hour following intravenous administration of 1×10^7 CFUs of strain RS218 in 5-LO−/− and wild type mice.
Mice were anesthetized with pentobarbital sodium given subcutaneously at 50 mg/kg and each mouse received 1×10^7 CFU of E. coli RS218 in 100 μl PBS via the tail vein. One hour later, mouse chest was cut open, and blood from right ventricle was collected and plated for bacterial counts (CFUs). The mouse was, then, perfused with a mammalian Ringer's solution by transcardiac perfusion through a 23-gauge needle inserted into the left ventricle of the heart under the perfusion pressure of about 100 mmHg. The perfusate exited through a cut in the right atrium. The composition of the mammalian Ringer solution was: (in mM) 132 NaCl, 4.6 KCl, 2 CaCl2, 1.2 MgSO4, 5.5 glucose, 5.0 NaHCO3, and 20 HEPES and Na-HEPES, containing 10 mg/ml BSA; pH of the Ringer solution was maintained at 7.40-7.45 by adjustment of the ratio of Na-HEPES to HEPES. […] Bacterial penetration into the brain was also expressed as (brain CFUs per gm/blood CFUs per ml)×100. […]

human BMEC [4] = assay: Type III GBS binding and invasion assays in human BMEC; format: cell-based; conditions: inhibitors of cPLA2α, Rho kinase, Rac1 and PKC
Procedure: GBS. Logarithmic phase cultures of GBS grown in Todd-Hewitt broth at 37° C. were washed and suspended in tissue culture medium. Approximately 5×10^5 CFUs of GBS were added to confluent human BMEC grown in each well of a 24-well plate (Corning Costar, multiplicity of infection of 5 bacteria/cell). The plates were centrifuged at 800×g for 10 min to promote the contact of GBS to the surface of the human BMEC monolayer, and then they were incubated for 2 hr at 37° C. The monolayers were washed three times with PBS and incubated with medium containing gentamicin (100 μg/ml) and penicillin (5 μg/ml) at 37° for 2 hr to kill extracellular bacteria. The monolayers were washed again, lysed, and viable intracellular bacteria were enumerated by culturing onto sheep blood agar plates. The percent invasion was calculated as (the number of intracellular bacteria divided by the number of bacteria inoculated)×100. Each assay was run in triplicate and also repeated at least twice. In one set of experiments the total GBS associated with human BMEC were quantified by the above procedure except that the incubation with gentamicin/penicillin was omitted.
Briefly, human BMEC were pretreated with AACOCF3 for 60 min, and then processed for type III GBS and E. coli K1 binding and invasion assays, as described above.
We next examined the effect of montelukast on type III GBS and E. coli K1 invasion of human BMEC by the methods described earlier. Briefly, human BMEC were treated with monelukast for 60 min and then processed for binding and invasion assays with type III GBS strain K79 and E. coli K1 strain RS 218.

PKC = assay: Activation of PKC and other signaling molecules in response to microbes in human BMEC; format: cell-based; conditions: response to type III GBS and E. coli K1 in human BMEC monolayers
Excerpt: We have previously shown that RhoGTPases and PKC contribute to type III GBS and E. coli K1 invasion of BMEC monolayers (1-3), and our next studies were to examine whether cPLA2α activations are related to RhoGTPases and PKC in type III GBS and E. coli K1 invasion of human BMEC monolayers (e.g., up- and down-stream of each other) by using inhibitors of cPLA2α (AACOCF3), Rho kinase (Y-27632), Rac1 (NSC-23766) and PKC (calphostin C).

[5] = cited from earlier work

Molecule: CC(=O)O[C@@H]1C[C@@H]2[C@@]3(C)CCCC(C)(C)[C@@H]3CC[C@@]2(C)[C@@H]2CC=C(C=O)[C@H](C=O)[C@@]12C [12-episcalaradial]
- GBS invasion of human BMEC (human BMEC [1]): did not exhibit any significant inhibition
- E. coli invasion of human BMEC (HBMEC [2]; inhibitors of iPLA2 and sPLA2, refs (1-3, 24)): did not exhibit any significant inhibition

Molecule: O=C(O)C1(c2ccc3c(c2)OC[C@H](Cc2ccc(-c4ccccc4)cc2)[C@H]3O)CCCC1 [CP105696]
- E. coli K1 invasion of HBMEC (HBMEC [3]): failed to affect E. coli K1 invasion of human BMEC monolayers; also recorded: failed to exhibit any inhibition of E. coli invasion of HBMEC

Molecule: CCCCC/C=C\C\C=C/C=C/C=C/[C@@H](SC[C@H](N)C(=O)NCC(=O)O)[C@@H](O)CCCC(=O)O [LTD4]
- E. coli penetration into the brains (E. coli K1 strain RS218; 5-LO-/- mice, one hour after i.v. E. coli K1 strain RS218): rescued the decreased E. coli penetration into the brains

Molecule: CN(C)C(=O)CCSC(SCCC(=O)O)c1cccc(/C=C/c2ccc3ccc(Cl)cc3n2)c1 (centres unmarked) [MK571]
- E. coli K1 penetration into the brain (brain CFU/gm and percent of brain CFU/blood CFU) (E. coli K1 strain RS218; wild type mice, oral 400 μg/mouse one hour before bacterial injection, one hour after i.v. 1×10^7 CFU): significantly decreased E. coli K1 penetration into the brain in the wild type mice; also recorded: significantly decreased E. coli K1 penetration into the brain of wild type mice
- E. coli K1 invasion of HBMEC (HBMEC [3]): inhibited E. coli K1 invasion of human BMEC monolayers in a dose-dependent manner; also recorded: effective in inhibiting E. coli invasion of HBMEC in a dose-dependent manner

Molecule: CC(C)c1ccc2c(c1)c(SC(C)(C)C)c(CC(C)(C)C(=O)O)n2Cc1ccc(Cl)cc1 [MK886]
- E. coli K1 invasion of HBMEC (HBMEC [3]): significantly inhibited E. coli K1 invasion of HBMEC in a dose-dependent manner

Molecule: CCN(CC)CCCC(C)Nc1nc(C)cc(Nc2ccc3nc(C)cc(N)c3c2)n1 (centres unmarked) [NSC-23766]
- type III GBS invasion of human BMEC monolayers (human BMEC [4]): inhibited type III GBS and E. coli K1 invasion of human BMEC monolayers in a dose-dependent manner
- inhibition of other signaling molecules (PKC): did not exhibit any inhibition of other signaling molecules
- E. coli K1 invasion of human BMEC monolayers (HBMEC [3]): inhibited type III GBS and E. coli K1 invasion of human BMEC monolayers in a dose-dependent manner

Molecule: C[C@@H](N)[C@H]1CC[C@H](C(=O)Nc2ccncc2)CC1 [Y-27632]
- type III GBS invasion of human BMEC monolayers (human BMEC [4]): inhibited type III GBS and E. coli K1 invasion of human BMEC monolayers in a dose-dependent manner
- inhibition of other signaling molecules (PKC): did not exhibit any inhibition of other signaling molecules
- E. coli K1 invasion of human BMEC monolayers (HBMEC [3]): inhibited type III GBS and E. coli K1 invasion of human BMEC monolayers in a dose-dependent manner

Molecule: C=C1[C@@H](C)[C@H]2[C@H](Cc3ccccc3)NC(=O)[C@]23[C@H](OC(C)=O)/C=C/[C@@](C)(O)C(=O)[C@@H](C)C/C=C/[C@H]3[C@@H]1O [cytochalasin D]
- E. coli invasion of HBMEC (HBMEC [2]): inhibited

Molecule: C/C1=C/C(=O)O[C@@H]2C[C@@H](CC[C@H](C)/C=C\C=C\CC1)O[C@@](O)([C@@H]1CSC(=O)N1)C2 [latrunculin A]
- E. coli invasion of HBMEC (HBMEC [2]): inhibited

Molecule: O=C(Nc1cccc2c(=O)cc(-c3nnn[nH]3)oc12)c1ccc(OCCCCc2ccccc2)cc1 [pranlukast]
- safety and tolerability in clinical trials ([5]; in vivo): safe and well tolerated

Molecule: COc1cc(C(=O)NS(=O)(=O)c2ccccc2C)ccc1Cc1cn(C)c2ccc(NC(=O)OC3CCCC3)cc12 [zafirlukast]
- safety and tolerability in clinical trials ([5]; developed for asthma): safe and well tolerated
- E. coli K1 invasion of HBMEC (HBMEC [3]): effective in inhibiting E. coli invasion of HBMEC in a dose-dependent manner

Molecule: CC(c1cc2ccccc2s1)N(O)C(N)=O (centres unmarked) [zileuton, Zileuton]
- safety and tolerability in clinical trials ([5]; developed for asthma): safe and well tolerated
- E. coli K1 invasion of HBMEC (HBMEC [3]): significantly inhibited E. coli K1 invasion of HBMEC in a dose-dependent manner

Molecule: calphostin C
- type III GBS invasion of human BMEC monolayers (human BMEC [4]): inhibited type III GBS and E. coli K1 invasion of human BMEC monolayers in a dose-dependent manner
- inhibition of other signaling molecules (PKC): did not exhibit any inhibition of other signaling molecules
- E. coli K1 invasion of human BMEC monolayers (HBMEC [3]): inhibited type III GBS and E. coli K1 invasion of human BMEC monolayers in a dose-dependent manner
